{
  "source": "paper PMC10729960",
  "about": "“Developing novel antimicrobials by combining cancer chemotherapeutics with bacterial DNA repair inhibitors” (PLOS Pathogens, 2023)",
  "format_in_all_cases": "biochemical",
  "key": {"[1]": {"target": "T1, UvrA (Escherichia coli, UniProt P0A698)", "T1 sequence (P0A698 1-940)": "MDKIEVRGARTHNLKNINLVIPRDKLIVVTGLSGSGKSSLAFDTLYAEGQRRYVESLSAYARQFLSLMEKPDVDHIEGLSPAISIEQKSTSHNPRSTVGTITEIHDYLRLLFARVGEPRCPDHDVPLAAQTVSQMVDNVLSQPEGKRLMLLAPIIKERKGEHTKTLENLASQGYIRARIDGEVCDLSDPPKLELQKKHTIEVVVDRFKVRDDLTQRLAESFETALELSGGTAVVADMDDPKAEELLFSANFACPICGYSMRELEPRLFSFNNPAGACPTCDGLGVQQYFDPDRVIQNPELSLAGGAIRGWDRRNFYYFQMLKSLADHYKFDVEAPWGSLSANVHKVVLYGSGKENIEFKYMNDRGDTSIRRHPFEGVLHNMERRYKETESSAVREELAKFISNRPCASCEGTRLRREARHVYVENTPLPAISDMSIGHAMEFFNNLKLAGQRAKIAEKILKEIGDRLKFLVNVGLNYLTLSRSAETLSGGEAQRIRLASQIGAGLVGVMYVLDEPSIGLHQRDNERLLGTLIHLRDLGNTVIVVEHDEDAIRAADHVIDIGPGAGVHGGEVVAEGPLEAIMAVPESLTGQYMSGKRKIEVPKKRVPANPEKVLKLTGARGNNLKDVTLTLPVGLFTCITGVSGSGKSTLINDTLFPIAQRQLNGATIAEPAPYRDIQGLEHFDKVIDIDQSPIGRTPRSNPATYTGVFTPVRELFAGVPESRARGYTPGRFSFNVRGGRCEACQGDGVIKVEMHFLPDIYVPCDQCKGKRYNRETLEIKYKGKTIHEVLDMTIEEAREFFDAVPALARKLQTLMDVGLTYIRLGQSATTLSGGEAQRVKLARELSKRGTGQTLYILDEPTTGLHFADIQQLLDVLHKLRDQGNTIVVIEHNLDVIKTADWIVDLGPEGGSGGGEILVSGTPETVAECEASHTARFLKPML", "assay": "NADH-coupled ATPase assay (pyruvate kinase / lactate dehydrogenase)", "conditions": "1 mM ATP, 50 nM UvrA, 10 mM MgCl2, pH 7.5, room temperature"}, "[2]": {"target": "T1, UvrA", "assay": "NADH-coupled ATPase assay (pyruvate kinase / lactate dehydrogenase)", "conditions": "without DNA; 50 nM UvrA, 20 μM compound, 1 mM ATP, 10 mM MgCl2, pH 7.5, room temperature; allosteric site only from docking"}, "[3]": {"target": "T2, UvrABC (UvrA, UvrB and UvrC) (Escherichia coli, UniProt P0A698+P0A8F8+P0A8G0)", "T2 construct": "purified proteins; UvrB and UvrC with C-terminal linker, AviTag, TEV site and 6xHis", "T2 sequence (P0A8G0 whole entry, one chain of several)": "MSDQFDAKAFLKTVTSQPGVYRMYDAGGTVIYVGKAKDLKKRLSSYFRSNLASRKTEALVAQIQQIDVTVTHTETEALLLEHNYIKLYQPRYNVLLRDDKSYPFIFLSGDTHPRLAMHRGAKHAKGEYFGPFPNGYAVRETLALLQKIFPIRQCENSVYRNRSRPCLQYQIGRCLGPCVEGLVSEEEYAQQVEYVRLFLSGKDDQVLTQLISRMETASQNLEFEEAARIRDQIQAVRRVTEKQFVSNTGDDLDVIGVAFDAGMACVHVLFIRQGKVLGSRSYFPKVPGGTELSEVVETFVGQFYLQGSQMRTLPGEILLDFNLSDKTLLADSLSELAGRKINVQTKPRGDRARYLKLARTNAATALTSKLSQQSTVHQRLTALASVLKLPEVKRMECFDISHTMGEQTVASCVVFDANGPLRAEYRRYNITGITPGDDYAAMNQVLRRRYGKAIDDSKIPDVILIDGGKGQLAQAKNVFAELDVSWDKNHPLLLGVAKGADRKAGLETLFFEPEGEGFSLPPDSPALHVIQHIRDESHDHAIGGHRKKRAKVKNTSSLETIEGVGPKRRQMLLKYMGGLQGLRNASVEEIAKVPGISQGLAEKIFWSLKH", "T2 sequence (P0A8F8 2-673, one chain of several)": "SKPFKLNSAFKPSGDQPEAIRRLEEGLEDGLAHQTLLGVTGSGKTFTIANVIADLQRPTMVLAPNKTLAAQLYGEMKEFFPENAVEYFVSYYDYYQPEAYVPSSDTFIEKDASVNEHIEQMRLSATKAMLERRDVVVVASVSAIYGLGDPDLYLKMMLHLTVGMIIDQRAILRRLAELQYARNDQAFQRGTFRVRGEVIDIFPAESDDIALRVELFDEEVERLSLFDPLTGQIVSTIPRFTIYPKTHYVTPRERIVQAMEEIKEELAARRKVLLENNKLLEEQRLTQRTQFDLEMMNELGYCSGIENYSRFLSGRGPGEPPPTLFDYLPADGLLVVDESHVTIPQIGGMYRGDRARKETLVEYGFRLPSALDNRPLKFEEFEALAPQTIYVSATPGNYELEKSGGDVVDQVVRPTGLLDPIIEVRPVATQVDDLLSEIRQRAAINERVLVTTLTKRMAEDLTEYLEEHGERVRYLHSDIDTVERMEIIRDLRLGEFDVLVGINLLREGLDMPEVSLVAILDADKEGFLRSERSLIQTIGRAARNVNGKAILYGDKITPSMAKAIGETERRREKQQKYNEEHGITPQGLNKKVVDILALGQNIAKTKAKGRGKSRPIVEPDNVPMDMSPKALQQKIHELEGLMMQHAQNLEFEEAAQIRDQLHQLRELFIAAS", "assay": "fluorescence-based DNA incision assay (Cy5 / black hole quencher)", "conditions": "37 °C, 200 nM UvrA, 400 nM UvrB, 200 nM UvrC, 1 mM ATP, 100 nM fluorescein-adducted DNA, pH 7.5, compound concentration not given for this assay"}, "[4]": {"target": "T1, UvrA", "assay": "NADH-coupled ATPase assay (pyruvate kinase / lactate dehydrogenase)", "conditions": "with and without DNA; 50 nM UvrA, 20 μM compound, 1 mM ATP, 10 mM MgCl2, pH 7.5, room temperature; DNA intercalator"}},
  "data": [
    {"compound": "Nc1ncnc2c1ncn2[C@@H]1O[C@H](COP(=O)(O)OP(=O)(O)OP(=O)(O)O)[C@@H](O)[C@H]1O", "note": "[ATP]", "values": [
      {"measurement": "NADH-coupled ATPase assay (pyruvate kinase / lactate dehydrogenase)", "setting": "[1]", "value": "We directly measured the rate of ATP turnover for purified UvrA"}
    ]},
    {"compound": "C/C=C(/C(=C/C)c1ccc(O)cc1)c1ccc(O)cc1", "note": "[Dienestrol]", "values": [
      {"measurement": "% reduction of ATPase at 20 μM", "setting": "[2]", "value": "> 70", "unit": "%"},
      {"measurement": "max inhibition", "setting": "[3]; 16 h", "value": "~ 25%"}
    ]},
    {"compound": "COc1cccc2c1C(=O)c1c(O)c3c(c(O)c1C2=O)C[C@@](O)(C(=O)CO)C[C@@H]3O[C@H]1C[C@H](N)[C@H](O[C@@H]2CCCCO2)[C@H](C)O1", "note": "[Pirarubicin]", "values": [
      {"measurement": "% ATPase activity at 20 μM", "setting": "[4]", "value": "Pirarubicin, Mitoxantrone, Dienestrol and L-thyroxine all inhibited the ATPase"}
    ]},
    {"compound": "O=C1c2c(O)ccc(O)c2C(=O)c2c(NCCNCCO)ccc(NCCNCCO)c21", "note": "[Mitoxantrone]", "values": [
      {"measurement": "% ATPase activity at 20 μM", "setting": "[4]", "value": "both Mitoxantrone and Pirarubicin directly inhibit UvrA’s ATPase activity"},
      {"measurement": "max inhibition", "setting": "[3]; 16 h, DNA intercalator", "value": "~ 82%"}
    ]},
    {"compound": "Nc1c2ccccc2nc2ccccc12", "note": "[9-aminoacridine]", "values": [
      {"measurement": "max inhibition", "setting": "[3]; 2.5 h, possibly acts through DNA, target subunit unk", "value": "~ 49%"}
    ]},
    {"compound": "N[C@@H](Cc1cc(I)c(Oc2cc(I)c(O)c(I)c2)c(I)c1)C(=O)O", "note": "[L-thyroxine]", "values": [
      {"measurement": "% reduction of ATPase at 20 μM", "setting": "[2]", "value": "> 70", "unit": "%"}
    ]}
  ]
}
